US12110533B2, “Stabilisation and isolation of extracellular nucleic acids” (Qiagen GmbH, priority 2011, dated 2024)
Peptide text beside a SMILES is read from it. * marks the point of attachment. Cbz = O=C(OCc1ccccc1)*; CH2Cl = ClC*; CH2F = FC*

What was measured:
[1] = molecular target: T1, calpain II (Homo sapiens, UniProt P17655); conditions: irreversible inhibitor; cited from earlier work
T1 sequence (P17655 1-700): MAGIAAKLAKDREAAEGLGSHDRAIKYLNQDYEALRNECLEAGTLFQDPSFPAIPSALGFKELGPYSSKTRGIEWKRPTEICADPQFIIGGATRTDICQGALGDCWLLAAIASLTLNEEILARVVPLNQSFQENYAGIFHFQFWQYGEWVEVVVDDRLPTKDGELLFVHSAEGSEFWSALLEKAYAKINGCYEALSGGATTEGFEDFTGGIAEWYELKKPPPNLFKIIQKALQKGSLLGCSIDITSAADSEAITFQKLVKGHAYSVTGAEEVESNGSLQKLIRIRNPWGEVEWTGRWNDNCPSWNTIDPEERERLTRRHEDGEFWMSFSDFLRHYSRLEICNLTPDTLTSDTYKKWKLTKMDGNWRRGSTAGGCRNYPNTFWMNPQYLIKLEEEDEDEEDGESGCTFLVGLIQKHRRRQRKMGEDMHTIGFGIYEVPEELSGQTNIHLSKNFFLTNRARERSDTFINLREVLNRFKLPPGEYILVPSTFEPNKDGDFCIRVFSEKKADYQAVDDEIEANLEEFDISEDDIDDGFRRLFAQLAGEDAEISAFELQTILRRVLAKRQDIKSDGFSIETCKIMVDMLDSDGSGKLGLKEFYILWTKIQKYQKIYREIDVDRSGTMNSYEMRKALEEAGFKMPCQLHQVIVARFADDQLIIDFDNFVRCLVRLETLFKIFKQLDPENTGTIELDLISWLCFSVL
T1 sequence (P04632 1-268 partner): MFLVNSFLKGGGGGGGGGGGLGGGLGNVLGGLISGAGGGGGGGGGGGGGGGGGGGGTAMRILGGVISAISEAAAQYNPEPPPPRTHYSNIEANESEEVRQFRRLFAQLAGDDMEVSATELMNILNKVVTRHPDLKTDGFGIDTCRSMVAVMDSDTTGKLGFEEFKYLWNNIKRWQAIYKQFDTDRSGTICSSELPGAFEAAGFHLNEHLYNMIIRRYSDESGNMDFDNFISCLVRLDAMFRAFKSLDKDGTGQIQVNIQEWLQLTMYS

[2] = molecular target: cathepsin L (Homo sapiens, UniProt P07711); conditions: cited from earlier work
Chain of cathepsin L (P07711 114-333, species assumed): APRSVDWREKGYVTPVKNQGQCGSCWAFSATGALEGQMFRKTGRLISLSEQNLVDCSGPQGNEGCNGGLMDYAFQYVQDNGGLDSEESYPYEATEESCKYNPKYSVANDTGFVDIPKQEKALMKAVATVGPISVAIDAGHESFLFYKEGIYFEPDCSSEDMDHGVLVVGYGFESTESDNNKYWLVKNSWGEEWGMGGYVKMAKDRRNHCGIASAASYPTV

[3] = molecular target: T2, fragmentin 2 (Rattus norvegicus, UniProt P18291); conditions: read-out: ID50 (the source's name); cited from earlier work
T2 sequence (P18291 21-248): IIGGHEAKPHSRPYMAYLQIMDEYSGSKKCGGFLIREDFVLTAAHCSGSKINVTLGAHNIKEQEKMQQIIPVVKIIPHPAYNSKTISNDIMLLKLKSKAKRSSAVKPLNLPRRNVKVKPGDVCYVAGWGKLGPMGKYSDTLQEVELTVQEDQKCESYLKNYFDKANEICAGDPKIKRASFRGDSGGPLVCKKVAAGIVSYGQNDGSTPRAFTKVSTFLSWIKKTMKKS

[4] = administered in rats in vivo; cited from earlier work
[5] = system: whole blood samples; assay: Chip gel electrophoresis of DNA isolated from plasma of stored whole blood (DNA size distribution, blood cell stability/DNA release); type: cell-based; conditions: for ladder-like pattern (release/fragmentation of genomic DNA): Example 1, 20 μM in 10 ml K2E whole blood, RT, day 3 and day 7, vs DMSO control and K2E blood; for genomic DNA release/fragmentation: Example 2, day 7, RT
Protocol: A test system was designed, wherein cell-containing biological samples, here whole blood samples, were incubated at room temperature (RT) for up to 6 or 7 days. Therein, the sample stabilizing properties of the additives of the present invention were tested on day 0, day 3 and day 6/7 the samples. The samples were processed according to the following protocols, where applicable (for details, see also the specific examples in the results section):
To separate the blood plasma from the whole blood, the blood samples were centrifuged for 15 min at 5000 rpm, and the obtained plasma samples were again centrifuged for 10 min at 16,000×g at 4° C.
(§1) The circulating, extracellular nucleic acids were purified from the obtained plasma samples using the QIAamp® Circulating NA Kit (according to the handbook). In brief: • 10 ml sample input; • lysis: 1 ml Proteinase K and 8 ml Buffer ACL (QIAGEN) • binding: 18 ml Buffer ACB (QIAGEN) • wash-steps: unchanged and according to handbook • elution in 60 μl Buffer AVE (QIAGEN)
4.1. Measurement of the blood cell stability/DNA release by the determination of DNA size distribution using a chip gel electrophoresis (2100 Bioanalyzer; Agilent Technologies; Inc., USA) according to manufacturer's instruction (see handbook Agilent DNA 7500 and DNA 12000 Kit Guide), but 1.5 μl instead of 1 μl sample were transferred to the wells.
The eluted circulating cell-free DNA was separated by size using chip gel electrophoresis (for details on the method see above, I, 4.1). […] The DMSO control and the K2E blood (not treated according to the teachings of the present invention) show the same ladder-like pattern of bands. This pattern occurs in samples where apoptosis takes place. During apoptosis, endonucleases degrade genomic DNA at inter-nucleosomal linker regions and produce DNA fragments of circa 180 bp or multiples of 180 bp. Thus, apoptosis occurs in samples which show a clear ladder-like pattern. Furthermore, the strength (darkness) of the pattern is decisive. The darker the bands, the more genomic DNA was released from the cells and thus contaminates the extracellular nucleic acid population.

[6] = system: whole blood samples; assay: 18S DNA duplex real time PCR assay: increase of ribosomal 18S DNA (ccfDNA) in plasma of stored whole blood; type: cell-based, human; conditions: for increase of ribosomal 18S DNA in plasma: Example 1, 20 μM in whole blood; for increase of ribosomal 18S DNA in plasma / increase of genomic DNA in plasma: within 7 days of storage at RT; for increase of genomic DNA in plasma: Example 2; for change of ccfDNA level in plasma (day X copies/day 0 copies): Example 8, RT up to 6 days, DHA 0.5 M, inositol 0.05 M, maltitol 0.01 M, mannitol
Protocol: A test system was designed, wherein cell-containing biological samples, here whole blood samples, were incubated at room temperature (RT) for up to 6 or 7 days. Therein, the sample stabilizing properties of the additives of the present invention were tested on day 0, day 3 and day 6/7 the samples.
as §1
4.2. DNA quantification with a real time PCR assay, sensitive for DNA degradation (target: 500 and 66 bp long ribosomal 18S DNA coding sequences).
(samples were diluted 1:10 before amplification)
Detection of ribosomal 18S DNA by quantitative real-time PCR, makes it possible to calculate the x-fold increase of DNA from day 0 to day 3 or 7 (calculation: division of day 3 (or 7) copies by day 0 copies).
The division of short amplicon copy number by long amplicon copy number (66 bp/500 bp) indicates whether the amount of detected short or long amplicons changes over time in a similar way. A decrease of this ratio implies a stronger release of longer rather than of shorter DNA molecules and can be interpreted as release of high molecular weight genomic DNA from blood cells.
On day 0, day 3 and day 6, replicates were processed as follows. […] The cleared plasma fraction was collected and the extracellular nucleic acids were isolated using the QIAamp Circulating nucleic acid kit (1 ml input material, 60 μl elution volume). […] Values that are close to 1 imply preserved levels of ccfDNA. The higher the value, the less stabilization is achieved.

**Q.** Which results are given for `CC(C)C[C@H](NC(=O)OCc1ccccc1)C(=O)N[C@@H](CC(C)C)C(=O)N[C@@H](Cc1ccc(O)cc1)C(=O)CF` [Calpain Inhibitor IV, Z-Leu-Leu-Tyr-CH2F] (Cbz-Leu-Leu-Tyr-CH2F)?
**A.** k2 [1]: 28,900 M-1s-1). Also acts as an inhibitor of cathepsin L (k2 =; k2 [2]: 680,000 M-1s-1).

**Q.** With `CC(NC(=O)OCc1ccccc1)C(=O)NC(C)C(=O)NC(CC(=O)O)C(=O)CCl` (stereo not drawn) [Granzyme B Inhibitor I, Z-Ala-Ala-Asp-CH2Cl] (Cbz-Ala-Ala-Asp-CH2Cl; configuration not given here) as the compound, how does the IC50 [3] read?
**A.** Its IC50 is 300 nM.

**Q.** For `N=c1sc2c(n1CC(=O)c1ccc([N+](=O)[O-])cc1)CCCC2` [Pifithrin-α, ρ-Nitro], which “more potent than Pifithrin-α in vivo” value [4] is on record?
**A.** Its value is 100-fold more potent than Pifithrin-α when adminstered in rats in.

**Q.** What does the source list for `CC(C)C(NC(=O)c1ccc2ccccc2n1)C(=O)NC(CC(=O)O)C(=O)COc1c(F)cccc1F` (stereo not drawn) [Q-VD-OPh, Quinoline-Val-Asp-CH2-OPH]?
**A.** ladder-like pattern (release/fragmentation of genomic DNA) [5]: significantly reduced ladder-like patterns; genomic DNA release/fragmentation ([5]; 1 μM with 21.4 mM glucose): significantly reduced; genomic DNA release/fragmentation ([5]; 4 μM with 21.4 mM glucose): effect is improved; increase of ribosomal 18S DNA in plasma [6]: reduced increase of DNA; increase of genomic DNA in plasma ([6]; 1 μM with 21 mM glucose): only a minor increase; increase of genomic DNA in plasma ([6]; 4 μM with 21 mM glucose): ≤ 4 fold

**Q.** For `O[C@H]1[C@H](O)[C@@H](O)[C@H](O)[C@@H](O)[C@H]1O` [inositol, Cyclohexane-1,2,3,4,5,6-geksol], which “change of ccfDNA level in plasma (day X copies/day 0 copies)” value (“change … (day X copies/day 0 copies)” below) [6] is on record?
**A.** The value was “suitable alternatives”.

**Q.** With `OC[C@@H](O)[C@@H](O[C@H]1O[C@H](CO)[C@@H](O)[C@H](O)[C@H]1O)[C@H](O)[C@@H](O)CO` [maltitol, 4-O-α-D-Glucopyranosyl-D-glucitol] as the compound, how does the “change … (day X copies/day 0 copies)” value [6] read?
**A.** The value was “suitable alternatives”.

**Q.** Which “change … (day X copies/day 0 copies)” value [6] does the source give for `OCC(O)C(O)C(O)C(O)CO` (stereo not drawn) [mannitol, Hexane-1,2,3,4,5,6-hexol] here?
**A.** Its value is “stabilization effects over 3 days”.

**Q.** What does the source list for Cbz-Val-Ala-Asp(OMe)-CH2F?
**A.** ladder-like pattern (release/fragmentation of genomic DNA) [5]: reduced ladder-like pattern; increase of ribosomal 18S DNA in plasma [6]: more prominent on day 7
